Measured values taken from PubChem BioAssay (NCI).
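Where inhibition never reached the appropriate level, the endpoint shown equals the highest concentration tested. Otherwise, values were interpolated linearly from a five-concentration, 48-hour dose response in 96-well plates. TGI is the concentration that stops growth completely.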

Columns and labels:
Test in all cases: growth of human tumour cells (NCI), 48 h
786-0 renal = tested on: 786-0 renal
A498 renal = tested on: A498 renal
A549 NSCLC = tested on: A549 NSCLC
ACHN renal = tested on: ACHN renal
BT-549 breast = tested on: BT-549 breast
CAKI-1 renal = tested on: CAKI-1 renal
CCRF-CEM leukemia = tested on: CCRF-CEM leukemia
COLO 205 colon = tested on: COLO 205 colon
DU-145 prostate = tested on: DU-145 prostate
EKVX NSCLC = tested on: EKVX NSCLC
HCC-2998 colon = tested on: HCC-2998 colon
HCT-116 colon = tested on: HCT-116 colon
HCT-15 colon = tested on: HCT-15 colon
HL-60(TB) leukemia = tested on: HL-60(TB) leukemia
HOP-62 NSCLC = tested on: HOP-62 NSCLC
HOP-92 NSCLC = tested on: HOP-92 NSCLC
HS 578T breast = tested on: HS 578T breast
HT29 colon = tested on: HT29 colon
IGROV1 ovarian = tested on: IGROV1 ovarian
K-562 leukemia = tested on: K-562 leukemia
KM12 colon = tested on: KM12 colon
LOX IMVI melanoma = tested on: LOX IMVI melanoma
M14 melanoma = tested on: M14 melanoma
MALME-3M melanoma = tested on: MALME-3M melanoma
MCF7 breast = tested on: MCF7 breast
MDA-MB-231 breast = tested on: MDA-MB-231 breast
MDA-MB-435 = tested on: MDA-MB-435
MDA-N = tested on: MDA-N
MOLT-4 leukemia = tested on: MOLT-4 leukemia
NCI-H226 lung = tested on: NCI-H226 lung
NCI-H23 lung = tested on: NCI-H23 lung
NCI-H460 lung = tested on: NCI-H460 lung
NCI-H522 lung = tested on: NCI-H522 lung
NCI/ADR-RES ovarian = tested on: NCI/ADR-RES ovarian
OVCAR-3 ovarian = tested on: OVCAR-3 ovarian
OVCAR-4 ovarian = tested on: OVCAR-4 ovarian
OVCAR-5 ovarian = tested on: OVCAR-5 ovarian
OVCAR-8 ovarian = tested on: OVCAR-8 ovarian
PC-3 prostate = tested on: PC-3 prostate
RPMI-8226 leukemia = tested on: RPMI-8226 leukemia
RXF 393 renal = tested on: RXF 393 renal
SF-268 CNS = tested on: SF-268 CNS
SF-295 CNS = tested on: SF-295 CNS
SF-539 CNS = tested on: SF-539 CNS
SK-MEL-2 melanoma = tested on: SK-MEL-2 melanoma
SK-MEL-28 melanoma = tested on: SK-MEL-28 melanoma
SK-MEL-5 melanoma = tested on: SK-MEL-5 melanoma
SK-OV-3 ovarian = tested on: SK-OV-3 ovarian
SN12C renal = tested on: SN12C renal
SNB-19 CNS = tested on: SNB-19 CNS
SNB-75 CNS = tested on: SNB-75 CNS
SR leukemia = tested on: SR leukemia
SW-620 colon = tested on: SW-620 colon
T-47D breast = tested on: T-47D breast
TK-10 renal = tested on: TK-10 renal
U251 CNS = tested on: U251 CNS
UACC-257 melanoma = tested on: UACC-257 melanoma
UACC-62 melanoma = tested on: UACC-62 melanoma
UO-31 renal = tested on: UO-31 renal

CCCN(CCCCN1C(=O)c2ccccc2C1=O)CC1COc2ccccc2O1 (stereo not given)
TGI (786-0 renal): > 100 µM | TGI (A498 renal): > 100 µM | TGI (A549 NSCLC): > 100 µM | TGI (ACHN renal): > 100 µM | TGI (BT-549 breast): > 100 µM | TGI (CAKI-1 renal): > 100 µM | TGI (CCRF-CEM leukemia): 88.8 µM | TGI (COLO 205 colon): > 100 µM | TGI (DU-145 prostate): > 100 µM | TGI (EKVX NSCLC): > 100 µM | TGI (HCC-2998 colon): > 100 µM | TGI (HCT-116 colon): > 100 µM | TGI (HCT-15 colon): > 100 µM | TGI (HL-60(TB) leukemia): 95.9 µM | TGI (HOP-62 NSCLC): > 100 µM | TGI (HOP-92 NSCLC): > 100 µM | TGI (HS 578T breast): > 100 µM | TGI (HT29 colon): > 100 µM | TGI (IGROV1 ovarian): > 100 µM | TGI (K-562 leukemia): > 100 µM | TGI (KM12 colon): > 100 µM | TGI (LOX IMVI melanoma): > 100 µM | TGI (M14 melanoma): > 100 µM | TGI (MALME-3M melanoma): > 100 µM | TGI (MCF7 breast): > 100 µM | TGI (MDA-MB-231 breast): > 100 µM | TGI (MDA-MB-435): > 100 µM | TGI (MDA-N): > 100 µM | TGI (MOLT-4 leukemia): 66.5 µM | TGI (NCI-H226 lung): > 100 µM | TGI (NCI-H23 lung): > 100 µM | TGI (NCI-H460 lung): > 100 µM | TGI (NCI-H522 lung): > 100 µM | TGI (NCI/ADR-RES ovarian): > 100 µM | TGI (OVCAR-3 ovarian): > 100 µM | TGI (OVCAR-4 ovarian): > 100 µM | TGI (OVCAR-5 ovarian): > 100 µM | TGI (OVCAR-8 ovarian): > 100 µM | TGI (PC-3 prostate): > 100 µM | TGI (RPMI-8226 leukemia): 84.9 µM | TGI (RXF 393 renal): > 100 µM | TGI (SF-268 CNS): > 100 µM | TGI (SF-295 CNS): > 100 µM | TGI (SF-539 CNS): > 100 µM | TGI (SK-MEL-2 melanoma): > 100 µM | TGI (SK-MEL-28 melanoma): > 100 µM | TGI (SK-MEL-5 melanoma): > 100 µM | TGI (SK-OV-3 ovarian): > 100 µM | TGI (SN12C renal): > 100 µM | TGI (SNB-19 CNS): > 100 µM | TGI (SNB-75 CNS): > 100 µM | TGI (SR leukemia): 77.6 µM | TGI (SW-620 colon): > 100 µM | TGI (T-47D breast): > 100 µM | TGI (TK-10 renal): > 100 µM | TGI (U251 CNS): > 100 µM | TGI (UACC-257 melanoma): > 100 µM | TGI (UACC-62 melanoma): > 100 µM | TGI (UO-31 renal): > 100 µM

CO/N=C1/c2sccc2[C@H](NC(=O)C(F)(F)F)[C@@H]1O
TGI (A498 renal): > 100 µM | TGI (A549 NSCLC): > 100 µM | TGI (BT-549 breast): > 100 µM | TGI (CAKI-1 renal): > 100 µM | TGI (CCRF-CEM leukemia): > 100 µM | TGI (COLO 205 colon): > 100 µM | TGI (DU-145 prostate): > 100 µM | TGI (EKVX NSCLC): > 100 µM | TGI (HCC-2998 colon): > 100 µM | TGI (HCT-116 colon): > 100 µM | TGI (HCT-15 colon): > 100 µM | TGI (HL-60(TB) leukemia): > 100 µM | TGI (HOP-62 NSCLC): > 100 µM | TGI (HOP-92 NSCLC): > 100 µM | TGI (HS 578T breast): > 100 µM | TGI (HT29 colon): > 100 µM | TGI (IGROV1 ovarian): > 100 µM | TGI (K-562 leukemia): > 100 µM | TGI (LOX IMVI melanoma): > 100 µM | TGI (M14 melanoma): > 100 µM | TGI (MALME-3M melanoma): > 100 µM | TGI (MCF7 breast): > 100 µM | TGI (MDA-MB-231 breast): > 100 µM | TGI (MDA-MB-435): > 100 µM | TGI (MDA-N): > 100 µM | TGI (MOLT-4 leukemia): > 100 µM | TGI (NCI-H226 lung): > 100 µM | TGI (NCI-H23 lung): > 100 µM | TGI (NCI-H460 lung): > 100 µM | TGI (NCI/ADR-RES ovarian): > 100 µM | TGI (OVCAR-3 ovarian): > 100 µM | TGI (OVCAR-4 ovarian): > 100 µM | TGI (OVCAR-5 ovarian): > 100 µM | TGI (OVCAR-8 ovarian): > 100 µM | TGI (PC-3 prostate): > 100 µM | TGI (RXF 393 renal): > 100 µM | TGI (SF-268 CNS): > 100 µM | TGI (SF-295 CNS): > 100 µM | TGI (SF-539 CNS): > 100 µM | TGI (SK-MEL-2 melanoma): > 100 µM | TGI (SK-MEL-28 melanoma): > 100 µM | TGI (SK-MEL-5 melanoma): > 100 µM | TGI (SK-OV-3 ovarian): > 100 µM | TGI (SN12C renal): > 100 µM | TGI (SNB-75 CNS): > 100 µM | TGI (SR leukemia): > 100 µM | TGI (SW-620 colon): > 100 µM | TGI (T-47D breast): > 100 µM | TGI (TK-10 renal): > 100 µM | TGI (U251 CNS): > 100 µM | TGI (UACC-257 melanoma): > 100 µM | TGI (UACC-62 melanoma): > 100 µM | TGI (UO-31 renal): > 100 µM

CN(C)CCCNc1nnc(NCCCN(C)C)c2c(=O)c3sccc3[nH]c12
TGI (786-0 renal): > 49.1 µM | TGI (A498 renal): > 100 µM | TGI (A549 NSCLC): > 78.9 µM | TGI (ACHN renal): > 100 µM | TGI (BT-549 breast): > 79 µM | TGI (CAKI-1 renal): > 48.9 µM | TGI (CCRF-CEM leukemia): > 50.2 µM | TGI (COLO 205 colon): > 20.2 µM | TGI (DU-145 prostate): > 100 µM | TGI (EKVX NSCLC): 65.6 µM | TGI (HCC-2998 colon): 23.7 µM | TGI (HCT-116 colon): > 33.8 µM | TGI (HCT-15 colon): > 91.5 µM | TGI (HL-60(TB) leukemia): > 28.2 µM | TGI (HOP-62 NSCLC): > 100 µM | TGI (HOP-92 NSCLC): > 100 µM | TGI (HS 578T breast): > 88.6 µM | TGI (IGROV1 ovarian): > 100 µM | TGI (K-562 leukemia): > 34.7 µM | TGI (KM12 colon): > 58.3 µM | TGI (LOX IMVI melanoma): 54.4 µM | TGI (M14 melanoma): 23.9 µM | TGI (MALME-3M melanoma): 35.5 µM | TGI (MCF7 breast): > 100 µM | TGI (MDA-MB-231 breast): > 30.7 µM | TGI (MDA-MB-435): > 54.7 µM | TGI (MDA-N): 14.9 µM | TGI (MOLT-4 leukemia): 14.4 µM | TGI (NCI-H226 lung): 39.1 µM | TGI (NCI-H23 lung): > 100 µM | TGI (NCI-H460 lung): 20.7 µM | TGI (NCI-H522 lung): 17.3 µM | TGI (NCI/ADR-RES ovarian): > 100 µM | TGI (OVCAR-3 ovarian): > 100 µM | TGI (OVCAR-4 ovarian): 23.2 µM | TGI (OVCAR-5 ovarian): > 85.1 µM | TGI (OVCAR-8 ovarian): > 100 µM | TGI (PC-3 prostate): > 61.4 µM | TGI (RPMI-8226 leukemia): 57.2 µM | TGI (RXF 393 renal): 42.1 µM | TGI (SF-268 CNS): 25.7 µM | TGI (SF-295 CNS): > 54 µM | TGI (SF-539 CNS): 30.1 µM | TGI (SK-MEL-2 melanoma): 37.8 µM | TGI (SK-MEL-28 melanoma): > 84.9 µM | TGI (SK-MEL-5 melanoma): 16 µM | TGI (SK-OV-3 ovarian): > 100 µM | TGI (SN12C renal): 50.9 µM | TGI (SNB-19 CNS): > 100 µM | TGI (SNB-75 CNS): 19.6 µM | TGI (SR leukemia): > 30.5 µM | TGI (SW-620 colon): > 72.2 µM | TGI (T-47D breast): > 51.5 µM | TGI (TK-10 renal): > 100 µM | TGI (U251 CNS): > 100 µM | TGI (UACC-257 melanoma): > 100 µM | TGI (UACC-62 melanoma): 23.7 µM | TGI (UO-31 renal): 9.15 µM
